Experimental data as given in US7550456B2, “Substituted aryl cycloalkanoyl derivatives and methods of their use” (Wyeth, priority 2003, dated 2009).
Where a name gives a salt, the structure may show the parent alone.

Each molecule was assayed against T1, human hNET (Homo sapiens, UniProt P23975) (assay: Norepinephrine (NE) uptake assay in MDCK-Net6 cells). Settings: 1 μM test compound, [3H]NE uptake, dihydrochloride, 1 µM.
T1 construct: expressed in transfected cells; host or cells: MDCK-Net6 (MDCK cells, stably transfected)
T1 sequence (P23975 whole entry): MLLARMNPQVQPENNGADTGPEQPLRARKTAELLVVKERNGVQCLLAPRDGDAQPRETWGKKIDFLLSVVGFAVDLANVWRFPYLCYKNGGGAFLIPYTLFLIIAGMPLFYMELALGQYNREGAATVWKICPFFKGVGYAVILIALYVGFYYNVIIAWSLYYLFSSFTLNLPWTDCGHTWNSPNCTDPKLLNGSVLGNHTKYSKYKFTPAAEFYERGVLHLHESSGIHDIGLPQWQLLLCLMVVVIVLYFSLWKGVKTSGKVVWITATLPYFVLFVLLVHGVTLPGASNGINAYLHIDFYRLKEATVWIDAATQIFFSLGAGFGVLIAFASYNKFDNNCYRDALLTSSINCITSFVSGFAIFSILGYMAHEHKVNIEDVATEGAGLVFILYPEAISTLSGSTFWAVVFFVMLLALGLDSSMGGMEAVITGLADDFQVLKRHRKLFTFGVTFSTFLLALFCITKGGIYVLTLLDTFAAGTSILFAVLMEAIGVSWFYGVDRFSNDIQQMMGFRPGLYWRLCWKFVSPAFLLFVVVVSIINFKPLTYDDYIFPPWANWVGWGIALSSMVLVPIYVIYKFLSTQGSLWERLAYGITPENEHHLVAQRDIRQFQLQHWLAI
Type: cell-based
How it was run: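 Radiolabelled NE uptake was counted by scintillation after NaOH lysis, with 1 µM desipramine defining non-specific uptake. EC50 came from a logistic dose-response fit.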

In the case of `OC1(C(CN2CCNCC2)c2cccc(OC(F)(F)F)c2)CCCCC1` (stereo in doubt) [Example 244, 1-{(1R)-2-piperazin-1-yl-1-[3-(trifluoromethoxy)phenyl]ethyl}cyclohexanol dihydrochloride], the “% Inhibition @ 1 μM (hNET)” value is reported as 15.6%.

Same assay, conditions: 1 μM test compound, [3H]NE uptake, read-out: % Inhibition @ 1 μM (hNET)

In order of rising inhibition at 1 µM:
1. CN1CCN(CC(c2cccc(OCc3ccccc3)c2)C2(O)CCC2)CC1 (stereo not drawn) [Example 115, 1-[1-[3-(benzyloxy)phenyl]-2-(4-methylpiperazin-1-yl)ethyl]cyclobutanol dihydrochloride]  -10%
2. CN1CCN(CC(c2ccc(OCC3CCCCC3)cc2)C2(O)CCCCC2)CC1 (stereo not drawn) [Example 468, 1-[1-[4-(cyclohexylmethoxy)phenyl]-2-(4-methylpiperazin-1-yl)ethyl]cyclohexanol dihydrochloride]  0%
3. OC1(C(CN2CCNCC2)c2ccc(OCc3ccccc3)cc2)CCC1 (stereo not drawn) [Example 70, 1-{1-[4-(benzyloxy)phenyl]-2-piperazin-1-ylethyl}cyclobutanol dihydrochloride]  8%
4. CN1CCN(CC(c2cccc(OC(F)(F)F)c2)C2(O)CCC2)CC1 (stereo not drawn) [Example 92, 1-{2-(4-methylpiperazin-1-yl)-1-[3-(trifluoromethoxy)phenyl]ethyl}cyclobutanol dihydrochloride]  13%
5. OC1(C(CN2CCNCC2)c2ccc(Oc3cccc4ccccc34)cc2)CCCCC1 (stereo not drawn) [Example 389, 1-{1-[4-(1-naphthyloxy)phenyl]-2-piperazin-1-ylethyl}cyclohexanol dihydrochloride]  16%
6. COc1ccc(C(CN2CCN(C)CC2)C2(O)CCCCC2)cc1-c1ccc(C(F)(F)F)cc1 (stereo not drawn) [Example 257, 1-[1-[6-methoxy-4′-(trifluoromethyl)-1,1′-biphenyl-3-yl]-2-(4-methylpiperazin-1-yl)ethyl]cyclohexanol dihydrochloride]  17%
7. OC1(C(CN2CCNCC2)c2ccc(OCc3ccccc3C(F)(F)F)cc2)CCCCC1 (stereo not drawn) [Example 440, 1-[2-piperazin-1-yl-1-(4-{[2-(trifluoromethyl)benzyl]oxy}phenyl)ethyl]cyclohexanol dihydrochloride]  28%
8. OC1(C(CN2CCNCC2)c2ccccc2-c2ccc(Cl)c(Cl)c2)CCCCC1 (stereo not drawn) [Example 148, 1-[1-(3′,4′-dichloro-1,1′-biphenyl-2-yl)-2-piperazin-1-ylethyl]cyclohexanol dihydrochloride]  32%
9. OC1(C(CN2CCNCC2)c2ccc(OCc3ccc4ccccc4c3)c(Cl)c2)CCCCC1 (stereo not drawn) [Example 427, 1-{1-[3-chloro-4-(2-naphthylmethoxy)phenyl]-2-piperazin-1-ylethyl}cyclohexanol dihydrochloride]  33%
10. CC(C)(O)CN1CCN(CC(c2cccc(OC(F)(F)F)c2)C2(O)CCCCC2)CC1 (single isomer, unassigned) [Example 372, 1-{2-[4-(2-hydroxy-2-methylpropyl)piperazin-1-yl]-1-[3-(trifluoromethoxy)phenyl]ethyl}cyclohexanol dihydrochloride]  37%
11. OC1(C(CN2CCNCC2)c2cccc(OC(F)(F)F)c2)CCC1 (stereo not drawn) [Example 46, 1-{2-piperazin-1-yl-1-[3-(trifluoromethoxy)phenyl]ethyl}cyclobutanol dihydrochloride]  44%
12. CN1CCN(CC(c2ccc(OCc3ccccc3)c(Br)c2)C2(O)CCCCC2)CC1 (stereo not drawn) [Example 265, 1-[1-[4-(benzyloxy)-3-bromophenyl]-2-(4-methylpiperazin-1-yl)ethyl]cyclohexanol dihydrochloride]  44%
13. OC1(C(CN2CCCN(Cc3ccccc3)CC2)c2ccc(OC(F)(F)F)cc2)CCCCC1 (stereo not drawn) [Example 302, 1-{2-(4-benzyl-1,4-diazepan-1-yl)-1-[4(trifluoromethoxy)phenyl]ethyl}cyclohexanol dihydrochloride]  50%
14. CN1CCN(CC(c2ccc(CCc3ccccc3)cc2)C2(O)CCCCC2)CC1 (stereo not drawn) [Example 410, 1-{2-(4-methylpiperazin-1-yl)-1-[4-(2-phenylethyl)phenyl]ethyl}cyclohexanol dihydrochloride]  51%
15. CN1CCN(CC(c2cccc(Oc3ccccc3)c2)C2(O)CCCCC2)CC1 (stereo not drawn) [Example 312, 1-[2-(4-methylpiperazin-1-yl)-1-(3-phenoxyphenyl)ethy]cyclohexanol dihydrochloride]  57.3%
16. OC1(C(CN2CCNCC2)c2ccc(OCCc3ccccc3)cc2)CCCCC1 (stereo not drawn) [Example 459, 1-{1-[4-(2-phenylethoxy)phenyl]-2-piperazin-1-ylethyl}cyclohexanol dihydrochloride]  58%
17. OC1(C(CN2CCNCC2)c2cccc(-c3ccccc3)c2)CCCCC1 (stereo not drawn) [Example 136, 1-[1-(1,1′-biphenyl-3-yl)-2-piperazin-1-ylethyl]cyclohexanol dihydrochloride]  62%
18. OC1(C(CN2CCNCC2)c2ccc(OCc3ccc4ccccc4c3)cc2)CCCCC1 (stereo not drawn) [Example 432, 1-{1-[4-(2-naphthylmethoxy)phenyl]-2-piperazin-1-ylethyl}cyclohexanol]  64%
19. CN1CCN(CC(c2ccc(OCc3ccc(C(F)(F)F)cc3)c(Cl)c2)C2(O)CCCCC2)CC1 (stereo not drawn) [Example 420, 1-[1-(3-chloro-4-{[4-(trifluoromethyl)benzyl]oxy}phenyl)-2-(4-methylpiperazin-1-yl)ethyl]cyclohexanol dihydrochloride]  68%
20. OC1(C(CN2CCNCC2)c2cc(Br)c(OCc3ccccc3)c(Br)c2)CCCCC1 (stereo not drawn) [Example 392, 1-{1-[4-(benzyloxy)-3,5-dibromophenyl]-2-piperazin-1-ylethyl}cyclohexanol dihydrochloride]  68%
21. OC1(C(CN2CCNCC2)c2ccc(OCc3cccc(C(F)(F)F)c3)cc2)CCCCC1 (stereo not drawn) [Example 438, 1-[2-piperazin-1-yl-1-(4-{[3-(trifluoromethyl)benzyl]oxy}phenyl)ethyl]cyclohexanol dihydrochloride]  69%
22. O=[N+]([O-])c1cccc(-c2ccc(C(CN3CCNCC3)C3(O)CCCCC3)cc2)c1 (stereo not drawn) [Example 169, 1-[1-(3′-nitro-1,1′-biphenyl-4-yl)-2-piperazin-1-ylethyl]cyclohexanol dihydrochloride]  69%
23. Cc1ccc(COc2ccc(C(CN3CCN(C)CC3)C3(O)CCCCC3)cc2F)cc1 (stereo not drawn) [Example 418, 1-[1-(3-fluoro-4-{[4-(methyl)benzyl]oxy}phenyl)-2-(4-methylpiperazin-1-yl)ethyl]cyclohexanol dihydrochloride]  71%
24. COc1ccccc1COc1ccc(C(CN2CCN(C)CC2)C2(O)CCCCC2)cc1Cl (stereo not drawn) [Example 457, 1-[1-{3-chloro-4-[(2-methoxybenzyl)oxy]phenyl}-2-(4-methylpiperazin-1-yl)ethyl]cyclohexanol dihydrochloride]  77%
25. Cc1ccc(COc2ccc(C(CN3CCNCC3)C3(O)CCCCC3)cc2F)cc1 (stereo not drawn) [Example 417, 1-(1-{3-fluoro-4-[(4-methylbenzyl)oxy]phenyl}-2-piperazin-1-ylethyl)cyclohexanol dihydrochloride]  78%
26. CCC1CN(C[C@H](c2cccc(OC(F)(F)F)c2)C2(O)CCCCC2)CCN1 (stereo partly drawn) [Example 350, 1-{(1S)-2-(3-ethylpiperazin-1-yl)-1-[3-(trifluoromethoxy)phenyl]ethyl}cyclohexanol dihydrochloride]  79%
27. OC1(C(CN2CCNCC2)c2ccc(OCc3cccc(C(F)(F)F)c3)c(Cl)c2)CCCCC1 (stereo not drawn) [Example 423, 1-[1-(3-chloro-4-{[3-(trifluoromethyl)benzyl]oxy}phenyl)-2-piperazin-1-ylethyl]cyclohexanol dihydrochloride]  79%
28. CN1CCN(CC(c2ccc(OCCc3ccccc3)cc2)C2(O)CCCCC2)CC1 (stereo not drawn) [Example 460, 1-{2-(4-methylpiperazin-1-yl)-1-[4-(2-phenylethoxy)phenyl]ethyl}cyclohexanol dihydrochloride]  82%
29. CN1CCN(CC(c2ccc(OCc3ccc(Br)cc3F)cc2)C2(O)CCCCC2)CC1 (stereo not drawn) [Example 435, 1-[1-{4-[(4-bromo-2-fluorobenzyl)oxy]phenyl}-2-(4-methylpiperazin-1-yl)ethyl]cyclohexanol dihydrochloride]  85%
30. CC(CCN1CCN(C[C@H](c2cccc(OC(F)(F)F)c2)C2(O)CCCCC2)CC1)c1ccccc1 (stereo partly drawn) [Example 347, 1-{(1S)-2-[4-(3-phenylbutyl)piperazin-1-yl]-1-[3-(trifluoromethoxy)phenyl]ethyl}cyclohexanol dihydrochloride]  92%
31. CN1CCN(CC(c2ccc(OCc3ccccc3)c(F)c2)C2(O)CCCCC2)CC1 (stereo not drawn) [Example 414, 1-{1-[4-(benzyloxy)-3-fluorophenyl]-2-(4-methylpiperazin-1-yl)ethyl}cyclohexanol dihydrochloride]  96%
32. CN1CCN(CC(c2ccc(OCc3ccccc3)cc2)C2(O)CCCCC2)CC1 (stereo not drawn) [Example 322, 1-[2-(4-Methyl-1-piperazinyl)-1-[4-phenylmethoxy)phenyl]ethyl]cyclohexanol dihydrochloride]  97.2%
33. COc1cccc(COc2ccc(C(CN3CCNCC3)C3(O)CCCCC3)cc2Cl)c1 (stereo not drawn) [Example 454, 1-(1-{3-chloro-4-[(3-methoxybenzyl)oxy]phenyl}-2-piperazin-1-ylethyl)cyclohexanol dihydrochloride]  99%

Same assay, conditions: [3H]NE uptake, test range 1 to 10,000 nM

In order of rising EC50:
1. O=[N+]([O-])c1cccc(-c2ccc(C(CN3CCNCC3)C3(O)CCCCC3)cc2)c1 (stereo not drawn) [Example 169, 1-[1-(3′-nitro-1,1′-biphenyl-4-yl)-2-piperazin-1-ylethyl]cyclohexanol dihydrochloride]  0.85 µM
2. OC1(C(CN2CCNCC2)c2cccc(-c3ccccc3)c2)CCCCC1 (stereo not drawn) [Example 136, 1-[1-(1,1′-biphenyl-3-yl)-2-piperazin-1-ylethyl]cyclohexanol dihydrochloride]  1 µM
